Measured values published in patent US10947196B2, “Beta adrenergic agonist and methods of using the same” (CURASEN THERAPEUTICS, INC., priority 2019, dated 2021).
Where two headings read alike, the source gives them in different places.

Legend:
Type in all cases: cell-based
[1] = molecular target: β1-adrenergic receptor (Homo sapiens (Human), UniProt P08588); test: cAMP Gs dynamic HTRF assay, β1 expressing CHO cells; details: B1-AR
Method in brief: (§1)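 Intracellular cAMP quantified by Eu-donor/d2-acceptor HTRF after 30 min compound exposure at 37° C in stimulation buffer with IBMX. Concentrations ran 10 μM top, 5-fold steps, 10 points. Cell lines: 1321N1 astrocytoma and CHO expressing β1 or β2; EC50 via four-parameter fit, relative efficacy against isoproterenol.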

[2] = molecular target: β2 adrenergic receptor (Homo sapiens (Human), UniProt P07550); test: cAMP Gs dynamic HTRF assay, β2 expressing CHO cells; details: B2-AR
Sequence of β2 adrenergic receptor (P07550 whole entry, species assumed): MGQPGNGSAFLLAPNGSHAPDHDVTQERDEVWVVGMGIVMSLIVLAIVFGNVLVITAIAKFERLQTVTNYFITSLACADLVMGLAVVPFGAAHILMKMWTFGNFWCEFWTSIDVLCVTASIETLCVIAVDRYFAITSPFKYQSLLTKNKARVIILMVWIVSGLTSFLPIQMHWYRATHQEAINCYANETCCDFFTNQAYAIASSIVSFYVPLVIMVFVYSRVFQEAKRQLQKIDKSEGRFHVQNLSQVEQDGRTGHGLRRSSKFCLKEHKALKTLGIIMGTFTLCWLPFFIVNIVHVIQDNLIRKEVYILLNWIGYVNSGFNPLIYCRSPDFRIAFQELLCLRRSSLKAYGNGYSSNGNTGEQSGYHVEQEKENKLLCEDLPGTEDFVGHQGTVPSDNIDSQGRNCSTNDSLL
Method in brief: as §1

[3] = molecular target: β2 adrenergic receptors in human astrocytoma cells (1321N1) (Homo sapiens (Human), UniProt P07550); test: cAMP HTRF assay in human astrocytoma cells (1321N1); details: Endogenous receptor, 1321N1 cells
Sequence of β2 adrenergic receptors in human astrocytoma cells (1321N1) (P07550 whole entry): as the sequence (P07550 whole entry, species assumed) above
Description: cAMP homogeneous time-resolved fluorescence (HTRF). Compound efficacy was determined using the cAMP Gs dynamic HTRF assay (Cisbio, catalog #62AM4PEC) largely following the manufacturer's instructions, also detailed below.
Compound preparation. […] Standard serial dilution curves were 10-point, 5-fold dilutions starting from a highest concentration of 10 μM. […] Assay plates were centrifuged at 500×g for 10 seconds. Compounds and IBMX were prepared at 2× final dose to compensate for addition of cells.
Cell preparation. 1× stimulation buffer, washing PBS (Dulbecco's phosphate-buffered saline, −Mg −Ca; Caisson Labs, catalog #PBL01), assay PBS (Dulbecco's phosphate-buffered saline, +Mg, +Ca; Caisson Labs, catalog #PBL02) and Versene (0.02% EDTA disodium salt solution in PBS without calcium or magnesium; Caisson Labs, catalog #EDL01) were pre-warmed to 37° C. Cells expressing beta-adrenergic receptor were washed in washing PBS to remove growth medium and then released from the surface by incubating with Versene for 5-10 minutes at 37° C. Cells were harvested using assay PBS, counted manually by hemocytometer or by an automated cell counter, pelleted by centrifugation (200×g, 5 minutes) and resuspended in 37° C. 1× stimulation buffer to a final density of 1.5×10^6 cells/mL. 5 μL of the suspended cell solution (7500 cell total) were added to all wells of the 384 well assay plate, the assay plate was covered with an Axygen® plate seal (Corning PCR-SP) and incubated in a humidified 37° C. environment supplemented with 5% CO2 for 30 minutes.
HTRF reagent addition, reading and data analysis. After 30 minutes of cell stimulation with test compound, the assay plates were centrifuged at 500×g for 10 seconds, and incubation was stopped with the addition of 5 μL cAMP-D2 acceptor, diluted 1:21 in detection and lysis buffer 2 (Cisbio 62CL2FDF) was added to all cells. Subsequently, 5 μL Anti-cAMP-Eu Donor, diluted 1:21 in detection and lysis buffer 2, was added to cells. Plates were sealed and reactions gently ‘vortexed’ at 900 rpm on a Heidolph Titramax 1000 for at least 30 minutes at room temperature. Plates were centrifuged again at 500×g for 10 seconds, and HTRF was measured using a Tecan Spark plate reader at 50 flashes per well. […] Potency estimates (EC50) were derived from the four-parameter nonlinear regression of the concentration-effect curve and an estimate of relative efficacy was determined by comparing the magnitude of the test compound HTRF signal window (min−max dose) with the signal window of the full agonist control, isoproterenol.

[4] = molecular target: B3-AR (Homo sapiens (Human), UniProt P13945); test: cAMP potency assay, B3-AR expressing CHO-K1 cells
Sequence of B3-AR (P13945 whole entry, species assumed): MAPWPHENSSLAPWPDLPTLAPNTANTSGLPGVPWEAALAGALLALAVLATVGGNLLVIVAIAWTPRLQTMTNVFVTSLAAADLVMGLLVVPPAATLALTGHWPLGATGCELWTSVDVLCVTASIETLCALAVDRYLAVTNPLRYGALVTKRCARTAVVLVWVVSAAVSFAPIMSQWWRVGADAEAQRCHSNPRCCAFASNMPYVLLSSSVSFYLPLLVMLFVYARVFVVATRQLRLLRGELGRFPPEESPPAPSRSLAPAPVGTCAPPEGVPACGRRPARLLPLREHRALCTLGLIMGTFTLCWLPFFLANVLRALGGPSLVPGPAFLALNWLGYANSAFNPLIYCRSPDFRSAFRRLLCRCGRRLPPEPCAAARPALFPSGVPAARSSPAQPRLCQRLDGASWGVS

[5] = CHO-K1 (HitHunter), read-out: Average pEC50 [Receptor subtype: B1-AR, Cell type: CHO-K1 (HitHunter)] (converted)
[6] = CHO-K cells, read-out: Average EC50 [Receptor subtype: B1-AR, Cell type: CHO-K]
[7] = CHO-K1 (HitHunter), read-out: Average pEC50 [Receptor subtype: B2-AR, Cell type: CHO-K1 (HitHunter)] (converted)
[8] = CHO-K cells, read-out: Average EC50 [Receptor subtype: B2-AR, Cell type: CHO-K]
[9] = read-out: Average pEC50 [Receptor subtype: Endogenous, Cell type: 1321N1] (converted)
[10] = read-out: Average pEC50 [Receptor subtype: B3-AR, Cell type: CHO-K1] (converted)
[11] = read-out: Average EC50 [Receptor subtype: Endogenous, Cell type: 1321N1]
[12] = read-out: Average EC50 [Receptor subtype: B3-AR, Cell type: CHO-K1]

Sequence of β1-adrenergic receptor (P08588 whole entry, species assumed): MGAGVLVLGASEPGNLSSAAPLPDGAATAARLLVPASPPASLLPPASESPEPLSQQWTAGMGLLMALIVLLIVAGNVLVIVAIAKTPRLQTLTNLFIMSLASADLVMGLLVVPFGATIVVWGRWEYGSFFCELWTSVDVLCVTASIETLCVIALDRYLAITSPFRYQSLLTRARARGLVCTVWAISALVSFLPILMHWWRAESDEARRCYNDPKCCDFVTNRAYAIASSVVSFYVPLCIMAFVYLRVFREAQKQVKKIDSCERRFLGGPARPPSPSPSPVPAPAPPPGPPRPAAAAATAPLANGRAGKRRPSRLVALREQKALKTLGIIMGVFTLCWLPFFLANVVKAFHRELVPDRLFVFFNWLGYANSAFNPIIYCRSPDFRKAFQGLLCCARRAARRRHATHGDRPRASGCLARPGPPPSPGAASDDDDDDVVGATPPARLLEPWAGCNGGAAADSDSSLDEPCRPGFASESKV

| SMILES | EC50 [1, 5] [µM] | EC50 [1, 6] [µM] | EC50 [2, 7] [µM] | EC50 [2, 8] [µM] | EC50 [3, 9] [µM] | EC50 [4, 10] [µM] | Average pEC50 [Receptor subtype: B1-AR; Cell type: CHO-K1 (HitHunter)] ([1]; CHO-K1 (HitHunter)) | Average pEC50 [Receptor subtype: Endogenous; Cell type: 1321N1] [3] | EC50 [3, 11] [µM] | EC50 [4, 12] [µM] | Average pEC50 [Receptor subtype: B3-AR; Cell type: CHO-K1] [4] |
| --- | --- | --- | --- | --- | --- | --- | --- | --- | --- | --- | --- |
| CC1(NC[C@H](O)c2cccc(C(F)(F)F)n2)CC1 [Compound 03-14] | 0.01 to 0.1 | 0.01 to 0.1 | 0.01 to 0.1 | 0.01 to 0.1 | 0.1 to 1 | > 1 | – | – | – | – | – |
| COc1ccc(C[C@@H](C)NC[C@H](O)c2cccc(C(F)(F)F)n2)cc1 [Compound 03-15] | < 0.01 | < 0.01 | < 0.01 | < 0.01 | < 0.01 | 0.1 to 1 | – | – | – | – | – |
| Cc1cc([C@@H](O)CNC(C)(C)C)nc(C(F)(F)F)c1 [Compound 03-19] | 0.1 to 1 | 0.1 to 1 | 0.01 to 0.1 | 0.01 to 0.1 | 0.1 to 1 | > 1 | – | – | – | – | – |
| O[C@@H](CNC1Cc2ccccc2C1)c1cccc(C(F)(F)F)n1 [Compound 03-21] | 0.1 to 1 | 0.1 to 1 | 0.01 to 0.1 | 0.01 to 0.1 | 0.01 to 0.1 | > 1 | – | – | – | – | – |
| O[C@@H](CNC1CCC1)c1cccc(C(F)(F)F)n1 [Compound 03-33] | – | < 0.01 | < 0.01 | < 0.01 | 0.01 to 0.1 | > 1 | A (A > 8) | – | – | – | – |
| CC(C)NC[C@H](O)c1cccc(C(F)(F)F)n1 [Compound 03-35] | < 0.01 | < 0.01 | 0.01 to 0.1 | 0.01 to 0.1 | 0.01 to 0.1 | > 1 | – | – | – | – | – |
| CC(C)(C)NC[C@H](O)c1cccc(OC(F)(F)F)n1 [Compound 03-37] | 0.01 to 0.1 | 0.01 to 0.1 | < 0.01 | < 0.01 | < 0.01 | 0.1 to 1 | – | – | – | – | – |
| CC(C)(C)NC[C@H](O)c1cncc(C(F)(F)F)n1 [Compound 03-38] | – | 0.1 to 1 | 0.01 to 0.1 | 0.01 to 0.1 | – | > 1 | C (C = <7-6) | C (C = <7-6) | 0.1 to 1 | > 1 | – |
| CC(C)(C)NC[C@H](O)c1cccc(C(F)F)n1 [Compound 03-44] | 0.01 to 0.1 | 0.01 to 0.1 | 0.01 to 0.1 | 0.01 to 0.1 | – | – | – | C (C = <7-6) | 0.1 to 1 | > 1 | D (D < 6) |
| CC(C)(C)NC[C@H](O)c1ccnc(C(F)(F)F)n1 [Compound 03-45] | 0.01 to 0.1 | 0.01 to 0.1 | 0.1 to 1 | 0.1 to 1 | – | – | – | – | < 0.01 | < 0.01 | – |
| [2H]C([2H])([2H])C(NCC(O)c1cccc(C(F)(F)F)n1)(C([2H])([2H])[2H])C([2H])([2H])[2H] (stereo not drawn) [Compound 03-49] | > 1 | > 1 | – | 0.1 to 1 | – | – | – | – | > 1 | > 1 | – |
| CCc1ncccc1[C@@H](O)CNC(C)(C)C [Compound 03-52] | > 1 | – | 0.1 to 1 | – | > 1 | > 1 | – | – | – | – | – |
| CC(C)(C)NC[C@H](O)c1cccnc1C1CCCC1 [Compound 03-53] | – | > 1 | 0.01 to 0.1 | 0.01 to 0.1 | – | > 1 | D (D < 6) | C (C = <7-6) | 0.1 to 1 | > 1 | – |
| CC(C)Oc1ncccc1[C@@H](O)CNC(C)(C)C [Compound 03-57] | – | 0.1 to 1 | 0.01 to 0.1 | 0.01 to 0.1 | – | > 1 | C (C = <7-6) | C (C = <7-6) | 0.1 to 1 | > 1 | – |
| CCOc1ncccc1[C@@H](O)CNC(C)(C)C [Compound 03-58] | 0.01 to 0.1 | 0.01 to 0.1 | 0.01 to 0.1 | 0.01 to 0.1 | – | – | – | B (B = 8-7) | 0.01 to 0.1 | > 1 | D (D < 6) |
| COc1ncccc1[C@@H](O)CNC(C)(C)C [Compound 03-59] | < 0.01 | < 0.01 | < 0.01 | < 0.01 | – | – | – | A (A > 8) | < 0.01 | 0.1 to 1 | C (C = <7-6) |
| CC(C)(C)NC[C@H](O)c1ccc(C(F)(F)F)cn1 [Compound 03-126] | 0.01 to 0.1 | 0.01 to 0.1 | 0.01 to 0.1 | 0.01 to 0.1 | 0.01 to 0.1 | 0.1 to 1 | – | – | – | – | – |
| Cc1ccc([C@@H](O)CNC(C)(C)C)nc1 [Compound 03-127] | 0.01 to 0.1 | 0.01 to 0.1 | 0.01 to 0.1 | 0.01 to 0.1 | 0.01 to 0.1 | > 1 | – | – | – | – | – |
| CNc1cccc([C@@H](O)CNC(C)(C)C)n1 [Compound 03-141] | 0.01 to 0.1 | 0.1 to 1 | < 0.01 | < 0.01 | 0.01 to 0.1 | > 1 | – | – | – | – | – |
| CC(C)(C)NC[C@H](O)c1cccc(C2CCC2)n1 [Compound 03-161] | – | < 0.01 | < 0.01 | < 0.01 | < 0.01 | 0.1 to 1 | A (A > 8) | – | – | – | – |
| Cc1ccc([C@@H](O)CNC(C)(C)C)nc1C(F)(F)F [Compound 03-167] | < 0.01 | < 0.01 | < 0.01 | < 0.01 | < 0.01 | > 1 | – | – | – | – | – |
